Structures are written as SMILES.

In one series the target is T1, p60c-src (Homo sapiens, UniProt P12931).
T1 construct: purchased Upstate Biotechnologies
The series is described as follows: Src kinase test procedure (ELISA). The format is biochemical. To be noted: cdc2 substrate peptide, (a) = average of two runs. The procedure:
Src Kinase Test Procedure
Inhibitors of p60^c-src (partially purified preparation purchased from Upstate Biotechnologies) tyrosine kinase activity are analyzed in an Elisa format. The Boehringer Mannheim Tyrosine Kinase Assay Kit (Catalog number 1-534505) with a cdc2 substrate peptide containing Tyr15 is used for the assay. HRP-conjugated anti-phosphotyrosine is used to detect phosphorylated peptide via a color reaction. Conditions recommended by the manufacturer are employed.
Reaction conditions: Five microliter aliquots of each compound prepared fresh at the time of the assay are added as a solution in 10 mM HEPES pH 7.5, 10% DMSO to the reaction well. Thirty-five microliters of reaction mix containing Src, buffer and peptide/bovine serum albumin mix are added to the compound wells and incubated at 30° C. for 10 minutes (reaction buffer: 50 mM Tris HCl pH 7.5, 10 mM MgCl2, 0.1 mM EGTA, 0.5 mM Na3VO4). The reaction is started by addition of 10 microliters of ATP, incubated at 30° C. for 1 hour, and stopped by addition of 20 microliters of 0.5M EDTA. The reaction mixture with the phosphorylated peptide is then transferred to a streptavidin-coated microtiter plate (provided in the kit) and allowed to bind for 20 minutes. Unbound peptide and reaction mixture is decanted and the plate is washed with PBS six times. Horseradish peroxidase-conjugated phosphotyrosine antibody supplied in the kit is incubated with the plate for one hour, then decanted. The plate is again ished with PBS six times. Substrate (provided in the kit) is added and absorbance at 405 nm is measured.
Activity is determined as % inhibition as calculated by the formula: (1−Abs/Abs(max))×100=% inhibition. Where multiple concentrations of the test agent are used, an IC50 (concentration which gives 50% inhibition) could be determined.

For the next series, the system named is HT-29 cells. The series is described as follows: HT-29 cell proliferation on plastic (MTS). Type of series: cell-based. Particulars: Homo sapiens; HT-29 cells on plastic, MTS on day five; read-out: HT-29 prolif IC50. Here is the method: Cell Proliferation Test Procedure for Inhibitors of Src Kinase
HT-29 cells: Compound effectiveness at inhibiting cell proliferation on plastic is performed in a 96-well format by plating 5000 cells per well in appropriate medium on day one, followed by compound addition on day 2 in serial two-fold dilutions. On day five, compound is washed away and medium containing MTS reagent (Promega) is added. Relative cell number is determined by reading the absorbance at 490 nm of a dye produced by an NAD-dependent cellular enzymatic reaction.

Series [1] relates to Rat2 fibroblasts transformed with v-Src/Hu c-Src fusion gene. The series is described as follows: Anchorage independent Src-transformed fibroblast proliferation. Type of series: cell-based. To be noted: Rattus norvegicus, 120 h, suspension growth, MTS on Day 5, read-out: Src TF prolif IC50. The procedure:
Anchorage Independent Src-transformed Fibroblast Proliferation Test Procedure: Rat2 fibroblasts stably transformed with a plasmid containing a CMV promotor controlled v-Src/Hu c-Src fusion gene in which the catalytic domain of human c-Src is inserted in place of the v-Src catalytic domain in the v-Src gene are used for the measurement of src dependent suspension growth. Ultra-low cluster plates (Costar #3474) are seeded with 10,000 cells per well on Day 1.

In series [2] the target is T2, Raf and/or Mek kinase (human c-Raf, GST-MEK1) (Homo sapiens, UniProt P04049+Q02750).
T2 construct: Sf9 insect cell lysate containing full length 6his-tagged recombinant human c-Raf; 6His; host or cells: Sf9 insect cells (c-Raf, used as lysate); E. coli (MEK1-GST, GST-MAPK)
The series is described as follows: Raf/Mek kinase cascade assay. The format is biochemical. To be noted: c-Raf dependent activation of GST-MEK and GST-MAPK, phospho-MAPK ELISA; (a)/(b)/(c) = average of two/three/four runs. The procedure:
Raf/Mek Kinase Cascade Assay Procedure
(Specific Activity: ˜200 U/ml). Human Non-active Mek-1-GST and human GST-MAP kinase (recombinant proteins produced in E. coli).
Stock Solutions Raf/Mek Cascade Assay:
• 1. Assay Dilution Buffer (ADB): 20 mM MOPS, pH 7.2, 25 mM β-glycerol phosphate, 5 mM EGTA, 1 mM sodium orthovanadate, 1 mM dithiothreitol; • 2. Magnesium/ATP Cocktail: 500 μM cold ATP and 75 mM magnesium chloride in ADB; • 3. Active Kinase: Human Active c-Raf: Use at 0.4 U per assay point; • 4. Non-active GST-MEK1: Use at 0.1 μg per assay point; and • 5. Non-active GST-p42 MAP Kinase: Use at 1.0 μg per assay point. Stock Solutions ELISA: • 1. TBST-Tris (50 mM, pH 7.5), NaCl (150 mM), Tween-20 (0.05%); • 2. Superblock (Pierce); • 3. Anti-GST Ab (Pharmacia); • 4. Anti-Phospho MAPK (Sigma); and • 5. Anti-Mouse Ab/Europium conjugate (Wallac). Assay Procedure: First Stage: c-Raf Dependent Activation of GST-MEK and GST-MAPK • 1. Add […] of ADB per assay (i.e. per well of a 96 well plate); • 2. Add 10 ml of 0.5 mM cold ATP and 75 mM magnesium chloride in ADB; • 3. Add 2 ml of c-Raf (0.4 U/assay), in conjunction with 1.6 ml non-active MEK1 (0.4 […]/assay); • 4. Add 4 ml of non-active GST-p42 MAP Kinase (1.0 mg/assay); • 5. Incubate for 60 minutes at 30° C. in a shaking incubator; • 6. Transfer this mixture to an anti-GST Ab coated 96 well plate (Nunc Immunosorb plates coated o/n with a-GST, then blocked with Pierce Superblock); • 7. Incubate for 60 minutes at 30° C. in a shaking incubator; • 8. Wash 3× with TBST, add Anti-Phospho MAPK (Sigma) (1:3000); • 9. Incubate for 60 minutes at 30° C. in a shaking incubator; • 10. Wash 3× with TBST, add Anti-Mouse Ab/Europium conjugate (Wallac) (1:500); • 11. Incubate for 60 minutes at 30° C. in a shaking incubator; • 12. Wash 3× with TBST, Read plates in Wallac Victor model Plate Reader; and • 13. Collect data analyze in Excel for single point and IC50 determinations.
Single point assay—% inhibition at […] (% Inhibition=1−cpd·treated sample/untreated control). IC50 determinations—done on compounds from single point assays with >80% inhibition. Typically, the Raf/Mek assay is run at compound concentrations from 10 μM to 1 nM in half log dilutions. (% inhibition is determined for each compound concentration). The results obtained measure Raf and/or Mek kinase inhibition, and for representative compounds of this invention are listed in Table 1.
Background: ELISA stands for enzyme-linked immunosorbent assay.

T1 sequence (P12931 whole entry): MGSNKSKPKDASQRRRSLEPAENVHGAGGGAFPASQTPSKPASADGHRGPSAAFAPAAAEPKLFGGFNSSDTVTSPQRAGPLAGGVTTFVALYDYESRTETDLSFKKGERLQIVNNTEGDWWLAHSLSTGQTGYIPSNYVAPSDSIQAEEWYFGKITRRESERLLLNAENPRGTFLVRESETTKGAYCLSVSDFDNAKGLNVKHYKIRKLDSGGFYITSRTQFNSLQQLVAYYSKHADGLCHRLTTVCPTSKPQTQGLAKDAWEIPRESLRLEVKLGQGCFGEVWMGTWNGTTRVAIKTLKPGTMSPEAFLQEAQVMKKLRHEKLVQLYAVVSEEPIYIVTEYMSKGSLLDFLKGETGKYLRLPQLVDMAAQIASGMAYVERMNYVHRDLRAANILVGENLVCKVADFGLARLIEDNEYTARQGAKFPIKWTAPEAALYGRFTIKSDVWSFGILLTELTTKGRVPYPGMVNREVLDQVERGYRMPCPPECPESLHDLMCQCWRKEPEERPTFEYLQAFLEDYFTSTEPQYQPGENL
T2 sequence (P04049 whole entry): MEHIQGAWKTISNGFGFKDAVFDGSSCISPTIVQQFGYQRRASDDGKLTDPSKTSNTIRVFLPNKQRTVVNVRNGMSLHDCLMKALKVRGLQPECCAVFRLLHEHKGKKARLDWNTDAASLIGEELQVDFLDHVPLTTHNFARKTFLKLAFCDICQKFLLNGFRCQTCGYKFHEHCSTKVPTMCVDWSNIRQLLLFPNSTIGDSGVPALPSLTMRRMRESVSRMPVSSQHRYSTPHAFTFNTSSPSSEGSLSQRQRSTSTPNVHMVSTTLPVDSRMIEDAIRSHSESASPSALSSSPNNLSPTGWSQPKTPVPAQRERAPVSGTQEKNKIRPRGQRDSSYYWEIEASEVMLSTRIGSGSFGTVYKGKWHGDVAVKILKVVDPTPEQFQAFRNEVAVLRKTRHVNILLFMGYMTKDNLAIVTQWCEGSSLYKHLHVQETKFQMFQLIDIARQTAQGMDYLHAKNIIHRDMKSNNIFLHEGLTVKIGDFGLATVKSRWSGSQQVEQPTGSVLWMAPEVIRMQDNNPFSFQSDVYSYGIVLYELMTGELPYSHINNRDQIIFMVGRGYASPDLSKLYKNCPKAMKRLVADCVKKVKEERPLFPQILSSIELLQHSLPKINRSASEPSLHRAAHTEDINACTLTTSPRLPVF
T2 sequence (Q02750 whole entry): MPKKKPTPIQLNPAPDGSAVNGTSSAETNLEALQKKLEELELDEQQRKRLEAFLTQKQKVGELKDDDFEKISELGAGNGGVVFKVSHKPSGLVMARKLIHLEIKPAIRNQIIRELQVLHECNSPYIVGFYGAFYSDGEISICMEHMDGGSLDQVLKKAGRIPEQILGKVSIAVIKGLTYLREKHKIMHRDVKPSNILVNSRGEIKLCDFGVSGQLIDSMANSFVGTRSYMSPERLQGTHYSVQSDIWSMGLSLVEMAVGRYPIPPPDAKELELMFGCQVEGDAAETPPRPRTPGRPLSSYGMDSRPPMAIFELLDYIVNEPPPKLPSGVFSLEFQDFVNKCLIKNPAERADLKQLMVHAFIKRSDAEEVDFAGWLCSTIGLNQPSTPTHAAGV

Consider `COc1cc(Nc2c(C#N)cnc3cc(OCCCN4CCC(N5CCCCC5)CC4)c(OC)cc23)c(Cl)cc1Cl` [Example 35, 7-(3-[1,4′-Bipiperidin]-1′-ylpropoxy)-4-[(2,4-dichloro-5-methoxyphenyl)amino]-6-methoxy-3-quinolinecarbonitrile], for which the melting point (in general, the temperature of the solid-liquid transition) was 130 to 132 °C. The IC50 (in general, the concentration at which inhibition is half-maximal) on p60c-src was 0.001 µM. Further, the IC50 in the series with HT-29 cells is 2.7 µM. The IC50 in series [1] turned out to be 0.14 µM.

Compound `COc1cc(Nc2c(C#N)cnc3cc(N4CCC(N5CCCC5)CC4)c(OC)cc23)c(Cl)cc1Cl` [Example 31, 4-[(2,4-dichloro-5-methoxyphenyl)amino]-6-methoxy-7-(4-pyrrolidin-1-ylpiperidin-1-yl)quinoline-3-carbonitrile] returned a melting point of 225 to 227 °C. For the same compound, the IC50 in series [1] amounted to 2.4 µM.

Compound `COc1cc(Nc2c(C#N)cnc3cc(OCCCN4CCC(N5CCCC5)CC4)c(OC)cc23)c(Cl)cc1Cl` [Example 34] showed a melting point of 108 to 112 °C. For the same compound, in series [2], the IC50 worked out at 0.25 µM. At p60c-src, this compound came in with an IC50 of 0.00055 µM. Also, the IC50 with HT-29 cells is 2.6 µM. In series [1], the IC50 was 0.466 µM.

These data come from patent publication US7767671B2, “3-Quinolinecarbonitrile protein kinase inhibitors” (Wyeth, priority 2004, dated 2010).
